# ± gives the standard deviation of the averaged measurements.
# Test: TIMS collisional cross section (CCS, N2) of the lipid ion; higher = larger ion cross section
# Settings: sample type: Liver; ionization mode: positive; one isomer drawn
# Experimental: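 Lipid extracts of human plasma (NIST SRM 1950), mouse liver and HeLa cells were separated by nanoflow C18 LC (30 min gradient, 60 °C) and analysed by TIMS-PASEF on a timsTOF Pro in positive ion mode. Ion mobility was calibrated with the Agilent tuning mix and converted to collisional cross sections (Mason–Schamp) in N2 drift gas. Lipids were identified by MS/MS (SimLipid) and manual curation. SMILES are LIPID MAPS representative structures for the annotated lipid.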
row,TIMS collisional cross section [Å²],Structure (SMILES)
1,278.5,CCCCCCCC/C=C\CCCCCCCCCCCC(=O)O[C@@H](CO)COC(=O)CCCCCCC/C=C\CCCCCCCC [DG 18:1_22:1_0:0] (ion (formula + adduct): [C43H80O5+NH4] 1+)
2,272.3,CC/C=C\C/C=C\C/C=C\C/C=C\C/C=C\CCCCCC(=O)O[C@@H](CO)COC(=O)CCCCCCC/C=C\CCCCCCCC [DG 18:1_22:5_0:0] (ion (formula + adduct): [C43H72O5+NH4] 1+)
3,269.9,CC/C=C\C/C=C\C/C=C\C/C=C\C/C=C\C/C=C\CCC(=O)O[C@@H](CO)COC(=O)CCCCCCC/C=C\CCCCCCCC [DG 18:1_22:6_0:0] (ion (formula + adduct): [C43H70O5+NH4] 1+)
4,256.6,CCCCC/C=C\C/C=C\CCCCCCCC(=O)OC[C@H](CO)OC(=O)CCCCCCC/C=C\C/C=C\CCCCC [DG 18:2_18:2_0:0] (ion (formula + adduct): [C39H68O5+NH4] 1+)
5,254.2,CC/C=C\C/C=C\C/C=C\CCCCCCCC(=O)O[C@@H](CO)COC(=O)CCCCCCC/C=C\C/C=C\CCCCC [DG 18:2_18:3_0:0] (ion (formula + adduct): [C39H66O5+NH4] 1+)
6,268.2,CCCCC/C=C\C/C=C\CCCCCCCC(=O)OC[C@H](CO)OC(=O)CCCCCCCCC/C=C\CCCCCCCC [DG 18:2_20:1_0:0] (ion (formula + adduct): [C41H74O5+NH4] 1+)
7,261.1,CCCCC/C=C\C/C=C\C/C=C\C/C=C\CCCC(=O)O[C@@H](CO)COC(=O)CCCCCCC/C=C\C/C=C\CCCCC [DG 18:2_20:4_0:0] (ion (formula + adduct): [C41H68O5+NH4] 1+)
8,279.2,CCCCC/C=C\C/C=C\CCCCCCCC(=O)OC[C@H](CO)OC(=O)CCCCCCCCCCCCCCCCCCCCC [DG 18:2_22:0_0:0] (ion (formula + adduct): [C43H80O5+NH4] 1+)
9,275.5,CCCCC/C=C\C/C=C\CCCCCCCC(=O)OC[C@H](CO)OC(=O)CCCCCCCCCCC/C=C\CCCCCCCC [DG 18:2_22:1_0:0] (ion (formula + adduct): [C43H78O5+NH4] 1+)
10,272.5,CCCCC/C=C\C/C=C\CCCCCCCCCCCC(=O)O[C@@H](CO)COC(=O)CCCCCCC/C=C\C/C=C\CCCCC [DG 18:2_22:2_0:0] (ion (formula + adduct): [C43H76O5+NH4] 1+)
11,270.8,CCCCC/C=C\C/C=C\C/C=C\C/C=C\CCCCCC(=O)O[C@@H](CO)COC(=O)CCCCCCC/C=C\C/C=C\CCCCC [DG 18:2_22:4_0:0] (ion (formula + adduct): [C43H72O5+NH4] 1+)
12,266.9,CC/C=C\C/C=C\C/C=C\C/C=C\C/C=C\CCCCCC(=O)O[C@@H](CO)COC(=O)CCCCCCC/C=C\C/C=C\CCCCC [DG 18:2_22:5_0:0] (ion (formula + adduct): [C43H70O5+NH4] 1+)
13,274.3,CCCCC/C=C\C/C=C\C/C=C\C/C=C\CCCC(=O)O[C@@H](CO)COC(=O)CCCCCCCCCCCCCCCCCC [DG 19:0_20:4_0:0] (ion (formula + adduct): [C42H74O5+NH4] 1+)

# Same assay, conditions: sample type: plasma; ionization mode: positive; one isomer drawn
row,TIMS collisional cross section [Å²],Structure (SMILES)
1,258.75 ± 1.2,CCCCCC/C=C\CCCCCCCC(=O)OC[C@H](CO)OC(=O)CCCCCCC/C=C\CCCCCCCC [DG 16:1_18:1_0:0] (ion (formula + adduct): [C37H68O5+NH4] 1+)
2,253.8,CCCCC/C=C\C/C=C\CCCCCCCC(=O)O[C@@H](CO)COC(=O)CCCCCCC/C=C\CCCCCC [DG 16:1_18:2_0:0] (ion (formula + adduct): [C37H66O5+NH4] 1+)
3,265.6,CCCCCCCCCCCCCCCCCC(=O)OC[C@H](CO)OC(=O)CCCCCCCCCCCCCCC [DG 18:0_16:0_0:0] (ion (formula + adduct): [C37H72O5+NH4] 1+)
4,273.4,CCCCCCCCCCCCCCCCCC(=O)OCC(CO)OC(=O)CCCCCCCCCCCCCCCCC (stereo not drawn) [DG 18:0_18:0_0:0] (ion (formula + adduct): [C39H76O5+NH4] 1+)
5,285.7,CCCCCCCCCCCCCCCCCCCCCC(=O)O[C@@H](CO)COC(=O)CCCCCCCCCCCCCCCCC [DG 18:0_22:0_0:0] (ion (formula + adduct): [C43H84O5+NH4] 1+)
6,263.1,CCCCCC/C=C/CCCCCCCCCC(=O)OC[C@H](CO)OC(=O)CCCCCCCCCCCCCCC [DG 18:1_16:0_0:0] (ion (formula + adduct): [C37H70O5+NH4] 1+)
7,265.9 ± 0.71,CCCCCCCC/C=C\CCCCCCCC(=O)OC[C@H](CO)OC(=O)CCCCCCC/C=C\CCCCCCCC [DG 18:1_18:1_0:0] (ion (formula + adduct): [C39H72O5+NH4] 1+)
8,261.2,CCCCC/C=C\C/C=C\CCCCCCCC(=O)O[C@@H](CO)COC(=O)CCCCCCC/C=C\CCCCCCCC [DG 18:1_18:2_0:0] (ion (formula + adduct): [C39H70O5+NH4] 1+)
9,258.8,CC/C=C\C/C=C\C/C=C\CCCCCCCC(=O)O[C@@H](CO)COC(=O)CCCCCCC/C=C\CCCCCCCC [DG 18:1_18:3_0:0] (ion (formula + adduct): [C39H68O5+NH4] 1+)
10,268.2,CCCCC/C=C\C/C=C\CCCCCCCCCC(=O)O[C@@H](CO)COC(=O)CCCCCCC/C=C\CCCCCCCC [DG 18:1_20:2_0:0] (ion (formula + adduct): [C41H74O5+NH4] 1+)
11,265.8,CCCCC/C=C\C/C=C\C/C=C\C/C=C\CCCC(=O)O[C@@H](CO)COC(=O)CCCCCCC/C=C\CCCCCCCC [DG 18:1_20:4_0:0] (ion (formula + adduct): [C41H70O5+NH4] 1+)
12,271.1,CC/C=C\C/C=C\C/C=C\C/C=C\C/C=C\CCCC(=O)O[C@@H](CO)COC(=O)CCCCCCC/C=C\CCCCCCCC [DG 18:1_20:5_0:0] (ion (formula + adduct): [C41H68O5+H] 1+)
13,273,CCCCC/C=C\C/C=C\C/C=C\C/C=C\CCCCCC(=O)O[C@@H](CO)COC(=O)CCCCCCC/C=C\CCCCCCCC [DG 18:1_22:4_0:0] (ion (formula + adduct): [C43H74O5+NH4] 1+)
14,257.1,CCCCC/C=C\C/C=C\CCCCCCCC(=O)OC[C@H](CO)OC(=O)CCCCCCC/C=C\C/C=C\CCCCC [DG 18:2_18:2_0:0] (ion (formula + adduct): [C39H68O5+NH4] 1+)
15,261.6,CCCCC/C=C\C/C=C\C/C=C\C/C=C\CCCC(=O)O[C@@H](CO)COC(=O)CCCCCCC/C=C\C/C=C\CCCCC [DG 18:2_20:4_0:0] (ion (formula + adduct): [C41H68O5+NH4] 1+)

# Reference: the supplement of paper PMC6965134
